Publication PMC8994735 (Targeted Oncology, 2021)
Entries after “also recorded” stand apart in the source; their conditions may differ.

Experiment: Plasma pharmacokinetics
Type: in vivo, human
Conditions: for AUC / Cmax / half-life / Tmax: human, oral; for Cmax: Mean Cmax

CC(C)n1nc(-c2ccc3oc(N)nc3c2)c2c(N)ncnc21 [sapanisertib]
Accumulation in plasma (QD or QW, any dose level): did not accumulate in plasma to any appreciable extent | Dose dependence of plasma exposure (AUC and Cmax) (across all doses): increased linearly across all doses; also recorded: generally linear, dose-dependent | Time at which peak plasma concentrations were achieved post-dose (cycle 1 day 1, single dose, both QD and QW arm): 0.5 to 2.0 h | Geometric mean accumulation ratio of AUC168 (cycle 1 day 15, 20 mg QW): 1.14 | Geometric mean accumulation ratio of Cmax (cycle 1 day 15, 20 mg QW): 0.72 | Geometric mean accumulation ratio of AUC168 (cycle 1 day 15, 30 mg QW): 1.47 | Geometric mean accumulation ratio of Cmax (cycle 1 day 15, 30 mg QW): 1.36 | Time at which peak plasma concentrations were achieved post-dose (cycle 1 day 15, QD arm): 0.5 to 3.0 h | Time at which peak plasma concentrations were achieved post-dose (cycle 1 day 15, QW arm): 0.5 to 4.1 h | Geometric mean accumulation ratio of Cmax (cycle 1 day 15, across all QD dose levels): 0.93–1.30 | AUC (plasma, Mean AUC24, cycle 1 day 15, QD dosing): 237 to 366 ng·h/mL | AUC (plasma, Mean AUC from 0–24 h (AUC24), cycle 1 day 1, across QD doses): 138 to 315 ng·h/mL | Cmax (plasma, cycle 1 day 1, across all QD doses): 23.9 to 56.9 ng/mL | Cmax (plasma, cycle 1 day 15, across all QD doses): 33.4 to 57.2 ng/mL | half-life (plasma, Mean plasma elimination half-life, cycle 1 day 1, across all QD doses): 6 to 6.8 h | half-life (plasma, Mean plasma elimination half-life, cycle 1 day 15, across all QD doses): 5.24 to 9.2 h | Tmax (plasma, Median Tmax, cycle 1 day 1, across all QD doses): 0.5 to 1 h | Tmax (plasma, Median Tmax, cycle 1 day 15, across all QD doses): 1 to 1.5 h | half-life (plasma, T1/2, overall, as summarised in the abstract): 5.9 to 7.6 h | Tmax (plasma, Tmax, across all doses in both arms): 0.5 to 2.6 h | Cmax, mean (sd) (plasma, cycle 1 day 15, QW dose escalation 20 mg, n 3): 207.5 ng/mL
